Experiments:
[1] = Liver microsomal metabolism stability test, dog; format: in vitro ADME; conditions: dog liver microsomes, 60 min
Protocol: (§1) The purpose of this experiment was to detect the stability of the example compounds in liver microsomes of rats, dogs and humans.
(§2) • Formulation of working solution of compounds: compound stock solution was added to phosphate buffer to a final concentration of 20 μM.
(§3) Dilution was performed with 100 mM phosphate buffer to a final concentration of 0.625 mg/mL.
(§4) NADPH (reduced nicotinamide adenine dinucleotide phosphate) and UDPGA (uridine diphosphate glucuronic acid) were weighed, 100 mM phosphate buffer was added, and the final concentration was 20 mM.
(§5) 1 mg of Alamethicin was weighed, and 200 μL of DMSO was added to formulate a 5 mg/mL solution. Then dilution was performed with phosphate buffer to a final concentration of 50 μg/mL.
(§6) Stop solution: the stop solution contains 100 ng/mL labetalol hydrochloride and 400 ng/mL tolbutamide and cold acetonitrile as internal standard.
(§7) 400 μL of formulated liver microsomes, 25 μL of compound working solution and 25 μL of Alamethicin were added in sequence to the 96-well plate, and pre-incubated at 37° C. for 10 min. Then 50 μL of formulated NADPH/UDPGA was added to start the reaction and the mixture was incubated at 37° C. The total volume of the reaction system was 500 μL. The final contents of each component are as follows:
(§8) • Instrument: Shimadzu LC-30 AD; • Chromatographic column: XBridge® C18 (50*4.6 mm, 5 μm particle size); • Mobile phase: A: 0.1% formic acid solution, B: methanol Wash gradient: 0.2-1.6 min 5% A to 95% A, 3.0-3.1 min 95% A to 5% A Run time: 4.0 min.
(§9) • Instrument: API5500 liquid chromatography mass spectrometer, AB Sciex; • Ion source: electrospray ionization source (ESI); • Drying gas: N2, temperature 500° C.; • Electrospray voltage: 5000 V; • Detection mode: positive ion detection; • Scanning mode: reaction monitoring (MRM) mode.

[2] = Liver microsomal metabolism stability test, human; format: in vitro ADME; conditions: human liver microsomes, 60 min
Protocol: as §1, §2, §3, §4, §5, §6, §7, §8, §9

[3] = tested on: spontaneously hypertensive rat (SHR) model; experiment: Pharmacodynamic evaluation on blood pressure in spontaneously hypertensive rats; format: in vivo; conditions: P.O, 30 mpk, 1-8 h after administration, P<0.05
Text: This experiment used a spontaneously hypertensive rat (SHR) model to evaluate the pharmacodynamic effect of the test compounds on the blood pressure and heart rate of the model.
Kent Scientific CODA non-invasive blood pressure system.
Spontaneously hypertensive rats (SHR) were provided by Beijing Vital River Laboratory Animal Technology Co., Ltd., male, 150-200 g, 13-15 weeks old, 50 rats.
After animals arrived at the experimental facility, the animals were adapted to the animal facility for 5-7 days. 4.2 After the adaptation period, the animals were adapted to the tail oversleeve restrain for 3 days, and the tail oversleeve restrain was performed twice a day. After the last restrain adaptation, the basal blood pressure was measured, and the animals were randomly divided into groups according to the basal blood pressure. There was no significant difference between the average systolic blood pressure of animals in each group, and the number of animals in each group met the requirements of statistical testing and pharmacodynamic guidelines. 4.3 On the second day after grouping, the animals were administered according to experimental design and grouping (P.O, 5 mL/kg), and the systolic blood pressure (SBP), diastolic blood pressure (DBP), mean arterial pressure (MAP) and heart rate (HR) of the animals were measured before administration and at 1, 2, 4, 6, 8 and 24 h after administration using tail oversleeve method.
Statistical differences between groups were analyzed by Two-way ANOVA test. Among them, P<0.05 indicated a significant difference, and P<0.01 indicated an extremely significant difference.

[4] = Liver microsomal metabolism stability test, rat; format: in vitro ADME; conditions: rat liver microsomes, 60 min
Protocol: as §1, §2, §3, §4, §5, §6, §7, §8, §9

## CCCCC1=NC2(CCCC2)C(=O)N1Cc1ccc(-c2ccccc2S(=O)(=O)Nc2noc(C)c2Cl)c(COCC)c1 [Example 45, 2-[4-[(2-butyl-4-oxo-1,3-diazaspiro[4.4]non-1-en-3-yl)methyl]-2-(ethoxymethyl)phenyl]-N-(4-chloro-5-methyl-isoxazol-3-yl)benzsulfamide]
[1]
  Remaining rate: 23.6%
[2]
  Remaining rate: 32.0%
[3]
  blood pressure (systolic blood pressure, diastolic blood pressure, mean arterial pressure) compared with the vehicle group: significantly reduced blood pressure
[4]
  Remaining rate: 23.3%

— patent publication US20240368123A1, “AROMATIC RING-CONTAINING BIOLOGICAL ANTAGONIST, AND PREPARATION METHOD THEREFOR AND USE THEREOF” (SHANGHAI HANSOH BIOMEDICAL CO., LTD., priority 2021, published 2024)
